Our source for the Activity values is ChEMBL document CHEMBL1127923, “Design and synthesis of squalene synthase inhibitors - acylic mimics of the zaragazic acids” (Bioorg Med Chem Lett, 1994).

Bounds are passed on as bounds.

The target of this experiment is T1, Squalene synthase (Rattus norvegicus) (UniProt Q02769).
T1 sequence (whole entry): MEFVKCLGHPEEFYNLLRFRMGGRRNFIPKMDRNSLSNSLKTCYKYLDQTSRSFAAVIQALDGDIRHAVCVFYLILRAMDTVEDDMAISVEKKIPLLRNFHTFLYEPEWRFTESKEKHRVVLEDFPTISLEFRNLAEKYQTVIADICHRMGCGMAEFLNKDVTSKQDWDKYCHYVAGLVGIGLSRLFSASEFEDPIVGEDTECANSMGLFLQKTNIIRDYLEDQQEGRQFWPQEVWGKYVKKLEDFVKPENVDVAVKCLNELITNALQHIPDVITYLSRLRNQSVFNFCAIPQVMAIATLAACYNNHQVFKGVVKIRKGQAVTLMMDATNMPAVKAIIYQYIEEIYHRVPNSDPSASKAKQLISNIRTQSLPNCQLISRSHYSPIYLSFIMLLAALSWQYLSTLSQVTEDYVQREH
The experiment in a line: Inhibitory activity against squalene synthase in rat liver squalene synthase (RLSS) enzyme assay.
`CC[C@H](C)C[C@H](C)/C=C/C(=O)O[C@H](CC(=O)OCCC[C@@H](OC(C)=O)[C@H](C)Cc1ccccc1)C(=O)O[C@H](CC(=O)O)C(=O)O` gave an Activity of 470 nM.
On to `CC(=O)O[C@H](CCCOC(=O)C(OC(=O)CCCCCCCCCCOc1ccccc1)C(=O)O[C@H](CC(=O)O)C(=O)O)[C@H](C)Cc1ccccc1` (some centres not stated), for which the Activity was > 3000 nM.
On to `CC(=O)O[C@H](CCCOC(=O)C[C@@H](OC(=O)CCCCCCCCCCOc1ccccc1)C(=O)N1CCC[C@H]1C(=O)O)[C@H](C)Cc1ccccc1`, for which the Activity was > 3000 nM.
As for `CC(=O)O[C@H](CCCOC(=O)C[C@@H](OC(=O)CCCCCCCCCCOc1ccccc1)C(=O)OC(C(=O)O)C(=O)O)[C@H](C)Cc1ccccc1`, the figure is 200 nM; as for `CC(=O)O[C@H](CCOC(=O)C[C@@H](OC(=O)CCCCCCCCCCOc1ccccc1)C(=O)O[C@H](CC(=O)O)C(=O)O)[C@H](C)Cc1ccccc1`, 200 nM.
With `C=C(CCC12OC(C(=O)O)C(O)(C(=O)O)C(C(=O)O)(O1)[C@H](OC(=O)/C=C/[C@@H](C)C[C@@H](C)CC)[C@H]2O)[C@@H](OC(C)=O)[C@H](C)Cc1ccccc1` (some centres not stated) the figure was 0.35 nM.
Turning to `CC[C@H](C)C[C@H](C)/C=C/C(=O)O[C@H](CC(=O)OCCC[C@@H](OC(=O)C(F)(F)F)[C@H](C)Cc1ccccc1)C(=O)O[C@@H](C(=O)O)[C@@H](O)C(=O)O`, the Activity stood at 300 nM.
